# Measurements published in US20240269139A1, “COMPOUNDS FOR TARGETED PROTEIN DEGRADATION OF KINASES” (DANA-FARBER CANCER INSTITUTE, INC., priority 2020, published 2024).
# Where two headings read alike, the source gives them in different places.
# Experiments:
# CRBN = target: T1, CRBN (Homo sapiens, UniProt Q96SW2); assay: Competitive displacement assay for cellular CRBN engagement (BRD4BD2-GFP reporter, dBET6); type: cell-based, H. sapiens; conditions: 5 hours in presence of dBET6
# T1 construct: HEK293T cells stably expressing the BRD4BD2-GFP with mCherry reporter; endogenous in cells; host or cells: HEK293T stably expressing BRD4BD2-GFP / mCherry reporter
# Procedure: HEK293T cells stably expressing the BRD4BD2-GFP with mCherry reporter were seeded at 30-50% confluency in 384-well plates with 50 μL FluoroBrite™ Dulbecco's Modified Eagle's medium (DMEM) media (Thermo Fisher Scientific. A18967) containing 10% fetal bovine serum (FBS) per well a day before compound treatment. Degrader titrations and 100 nM dBET6 or 250 nM AT1 were dispensed using a D300e Digital Dispenser (HP), normalized to 0.5% DMSO, and incubated with cells for 5 hours. Assay plates were imaged using Acumen® (TTP Labtech), as described above.
# [1] = target: protein kinases (human kinome) (Homo sapiens, UniProt Q00535); type: cell-based; conditions: for logFC of CDK5: Accession Q00535
# [2] = target: protein kinases (human kinome) (Homo sapiens, UniProt Q16584); type: cell-based
# [3] = target: T2, protein kinases (human kinome) (Homo sapiens, UniProt Q4G0N4); type: cell-based; conditions: Accession Q4GON4; experiment wp160, 1 hr; direction down
# T2 sequence (Q4G0N4 63-442): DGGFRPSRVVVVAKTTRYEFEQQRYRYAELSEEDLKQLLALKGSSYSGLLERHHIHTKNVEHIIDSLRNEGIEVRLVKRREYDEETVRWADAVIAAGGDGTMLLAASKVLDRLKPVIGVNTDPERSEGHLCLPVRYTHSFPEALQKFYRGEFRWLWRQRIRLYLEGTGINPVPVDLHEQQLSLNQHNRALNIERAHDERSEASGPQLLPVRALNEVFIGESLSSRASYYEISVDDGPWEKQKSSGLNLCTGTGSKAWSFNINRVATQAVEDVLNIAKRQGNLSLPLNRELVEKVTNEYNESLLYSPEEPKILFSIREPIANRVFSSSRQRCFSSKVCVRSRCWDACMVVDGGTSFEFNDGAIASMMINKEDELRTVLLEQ
# [4] = target: protein kinases (human kinome) (Homo sapiens, UniProt Q8NI60); type: cell-based; conditions: experiment wp160, 1 hr
# [5] = target: protein kinases (human kinome) (Homo sapiens, UniProt P07947); type: cell-based; conditions: YES1 (P07947), experiment wp133, 4 hr
# [6] = target: T3, protein kinases (human kinome) (Homo sapiens, UniProt Q969Z0); type: cell-based; conditions: Accession Q969Z0-1; experiment wp160, 1 hr; direction down
# T3 sequence (Q969Z0 108-631): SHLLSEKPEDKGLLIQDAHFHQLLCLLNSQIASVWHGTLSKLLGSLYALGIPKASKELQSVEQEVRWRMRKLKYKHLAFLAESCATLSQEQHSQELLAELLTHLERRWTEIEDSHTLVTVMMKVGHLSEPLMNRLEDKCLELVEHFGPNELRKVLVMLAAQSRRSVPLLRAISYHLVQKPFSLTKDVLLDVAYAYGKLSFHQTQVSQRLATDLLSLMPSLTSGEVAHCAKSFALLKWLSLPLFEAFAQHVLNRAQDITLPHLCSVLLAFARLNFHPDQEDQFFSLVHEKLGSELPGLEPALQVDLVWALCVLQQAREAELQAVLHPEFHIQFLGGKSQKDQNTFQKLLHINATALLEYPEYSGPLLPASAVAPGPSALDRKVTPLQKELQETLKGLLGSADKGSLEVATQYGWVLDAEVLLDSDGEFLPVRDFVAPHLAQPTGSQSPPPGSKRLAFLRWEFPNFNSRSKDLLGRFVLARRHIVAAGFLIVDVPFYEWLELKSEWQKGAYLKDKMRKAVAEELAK
# [7] = target: protein kinases (human kinome) (Homo sapiens, UniProt Q9HBH9); type: cell-based; conditions: for logFC MKNK2 (Q9HBH9-1): direction down; for logFC: MKNK2 (Q9HBH9-1)
# [8] = target: protein kinases (human kinome) (Homo sapiens, UniProt P53667); type: cell-based; conditions: LIMK1 (P53667-1)
smiles,measurement,setting,value
"Cc1ccc(C(=O)Nc2ccc(CN3CCN(CCCOCCOCCOCCNC(=O)COc4cccc5c4C(=O)N(C4CCC(=O)NC4=O)C5=O)CC3)c(C(F)(F)F)c2)cc1C#Cc1cnc2cccnn12 (stereo not shown) [SB1-G-187, N-(4-((4-(1-((2-(2,6-dioxopiperidin-3-yl)-1,3-dioxoisoindolin-4-yl)oxy)-2-oxo-6,9,12-trioxa-3-azapentadecan-15-yl)piperazin-1-yl)methyl)-3 (trifluoromethyl)phenyl)-3-(imidazo[1,2-b]pyridazin-3-ylethynyl)-4-methylbenzamide]",cellular permeability / CRBN engagement,CRBN,able to permeate the cell membrane and bind to the CRBN E3 ligase
CC(C)S(=O)(=O)c1ccccc1Nc1nc(Nc2ccc(N3CCN(CCOCCNC(=O)CNc4cccc5c4C(=O)N(C4CCC(=O)NC4=O)C5=O)CC3)cc2)ncc1Cl (stereo not shown) [SK-3-91],cellular permeability / CRBN engagement,CRBN,able to permeate the cell membrane and bind to the CRBN E3 ligase
CC(C)S(=O)(=O)c1ccccc1Nc1nc(Nc2ccc(N3CCN(CCOCCNC(=O)CNc4cccc5c4C(=O)N(C4CCC(=O)NC4=O)C5=O)CC3)cc2)ncc1Cl (stereo not shown) [SK.3.91],logFC of CDK5,[1]; experiment wp016,−1.126
same,logFC of CDK5,"[1]; experiment wp016, 1 uM",−1.429
same,logFC of CDK5,[1]; experiment wp103,−1.043
same,logFC of CDK5,[1]; experiment wp105,−0.931
same,logFC CDK5 (Q00535),"[1]; Experiment wp105, direction of change down",−0.931
same,logFC CDK5 (Q00535),[1]; Experiment wp107,−1.014
same,logFC CDK5 (Q00535),[1]; Experiment wp114,−0.468
same,logFC CDK5 (Q00535),"[1]; Experiment wp114, direction of change down",−0.468
same,logFC CDK5 (Q00535),"[1]; Experiment wp160, 2 hr",−0.6265
same,logFC CDK5 (Q00535),[1]; Experiment wp172,−1.304
same,logFC CDK5 (Q00535),"[1]; experiment wp016, 1 uM, direction of change down",−1.429
same,logFC CDK5 (Q00535),"[1]; experiment wp016, direction of change down",−1.126
same,logFC CDK5 (Q00535),"[1]; experiment wp103, direction of change down",−1.043
same,logFC CDK5 (Q00535),"[1]; experiment wp107, direction of change down",−1.014
same,logFC CDK5 (Q00535),"[1]; experiment wp133, 2 hr",−0.6608
same,logFC CDK5 (Q00535),"[1]; experiment wp133, 2 hr, direction of change down",−0.6608
same,logFC CDK5 (Q00535),"[1]; experiment wp133, 4 hr",−1.242
same,logFC CDK5 (Q00535),"[1]; experiment wp133, 4 hr, direction of change down",−1.242
same,logFC CDK5 (Q00535),"[1]; experiment wp160, 1 hr",−0.3257
same,logFC CDK5 (Q00535),"[1]; experiment wp160, 1 hr, direction of change down",−0.3257
same,logFC CDK5 (Q00535),"[1]; experiment wp160, 2 hr, direction of change down",−0.6265
same,logFC CDK5 (Q00535),"[1]; experiment wp160, 4 hr",−1.197
same,logFC CDK5 (Q00535),"[1]; experiment wp160, 4 hr, direction of change down",−1.197
same,logFC CDK5 (Q00535),"[1]; experiment wp172, direction of change down",−1.304
same,logFC MAP3K11 (Q16584),[2]; experiment wp103,−0.7838
same,logFC MAP3K11 (Q16584),[2]; experiment wp107,−2.182
same,logFC MAP3K11 (Q16584),[2]; experiment wp114,−0.4774
same,logFC MAP3K11 (Q16584),"[2]; experiment wp133, 1 hr",−0.3986
same,logFC MAP3K11 (Q16584),"[2]; experiment wp133, 2 hr",−0.8441
same,logFC MAP3K11 (Q16584),"[2]; experiment wp133, 4 hr",−1.487
same,logFC NADK2,[3],−0.698
same,logFC COQ8A (Q8N160-1),[4],−0.7959
same,logFC COQ8A (Q8NI60-1),[4],−0.7959
same,logFC,[5],−0.5025
same,logFC,[5]; direction down,−0.5025
same,logFC TBRG4,[6],−0.9113
same,logFC MKNK2 (Q9HBH9-1),"[7]; Experiment wp133, 1 hr",−0.5168
same,logFC MKNK2 (Q9HBH9-1),"[7]; Experiment wp133, 2 hr",−0.5303
same,logFC MKNK2 (Q9HBH9-1),"[7]; Experiment wp133, 4 hr",−0.8537
same,logFC,"[7]; experiment wp133, 1 hr",−0.5168
same,logFC,"[7]; experiment wp133, 2 hr",−0.5303
same,logFC,"[7]; experiment wp133, 4 hr",−0.8537
same,logFC LIMK1,"[8]; direction down, experiment wp103",−1.238
same,logFC LIMK1,"[8]; direction down, experiment wp105",−1.464
same,logFC LIMK1,"[8]; direction down, experiment wp107",−0.8704
same,logFC LIMK1,"[8]; direction down, experiment wp114",−0.546
same,logFC LIMK1,"[8]; direction down, experiment wp133, 1 hr",−0.4117
same,logFC LIMK1,"[8]; direction down, experiment wp133, 2 hr",−0.8026
same,logFC LIMK1,"[8]; direction down, experiment wp133, 4 hr",−1.371
same,logFC LIMK1,"[8]; direction down, experiment wp160, 2 hr",−0.8634
same,logFC LIMK1,"[8]; direction down, experiment wp160, 4 hr",−1.366
same,logFC LIMK1,"[8]; direction down, experiment wp172",−1.869
same,logFC LIMK1,"[8]; experiment wp103, down",−1.238
same,logFC LIMK1,"[8]; experiment wp105, down",−1.464
same,logFC LIMK1,"[8]; experiment wp107, down",−0.8704
same,logFC LIMK1,"[8]; experiment wp114, down",−0.546
same,logFC LIMK1,"[8]; experiment wp133, 1 hr, down",−0.4117
same,logFC LIMK1,"[8]; experiment wp133, 2 hr, down",−0.8026
same,logFC LIMK1,"[8]; experiment wp133, 4 hr, down",−1.371
same,logFC LIMK1,"[8]; experiment wp160, 2 hr, down",−0.8634
same,logFC LIMK1,"[8]; experiment wp160, 4 hr, down",−1.366
same,logFC LIMK1,"[8]; experiment wp172, down",−1.869
